# Laboratory results as given in patent publication US20020156236A1, “Binding sites for phosphotyrosine binding domains” (priority 1995, published 2002).
# pIC50: −log10 of the molar value. Where a SMILES comes first, the peptide text is derived from it.
# Tests used:
# [1] = molecular target: T1, PTB domain/c-erbB2 binding (GST-PTB domain of SHC; c-erbB2 from SKBR3 lysate) (Homo sapiens, UniProt P29353); test: biochemical
# T1 construct: GST-PTB domain fusion proteins were expressed from recombinant baculovirus in sf9 cells; made in house; host or cells: Sf9 cells (recombinant baculovirus) for GST-PTB; c-erbB2 endogenous in SKBR3 cell lysate
# T1 sequence (P29353 156-341): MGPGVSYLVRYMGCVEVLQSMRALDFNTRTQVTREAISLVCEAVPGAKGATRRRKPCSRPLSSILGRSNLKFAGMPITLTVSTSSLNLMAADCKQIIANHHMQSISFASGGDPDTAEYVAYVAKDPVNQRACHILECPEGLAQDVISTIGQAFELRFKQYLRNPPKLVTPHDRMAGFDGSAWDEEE
# [2] = molecular target: T2, GST-PTB domain fusion protein (Homo sapiens, UniProt P29353); test: Direct binding of biotinylated peptides to PTB domain (streptavidin-coupled alkaline phosphatase detection); conditions: 500 nM biotinylated peptide, FIG. 3
# T2 construct: 100 ng of GST-PTB domain or GST-SH2 domain fusion protein were incubated; made in house; host or cells: Sf9 cells (recombinant baculovirus)
# T2 sequence (P29353 156-339 limits assumed): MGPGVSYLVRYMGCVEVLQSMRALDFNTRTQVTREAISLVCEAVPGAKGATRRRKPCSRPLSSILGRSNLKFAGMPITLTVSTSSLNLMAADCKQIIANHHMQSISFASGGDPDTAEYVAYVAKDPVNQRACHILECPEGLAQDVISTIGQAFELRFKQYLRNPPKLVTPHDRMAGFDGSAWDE
# Procedure: (§1) The PTB domain was immunoprecipitated and the washed pellet assayed for the presence of bound peptide with streptavidin-coupled alkaline phosphatase. […] See, Kavanaugh and Williams, supra.
# Peptides were biotinylated during synthesis and HPLC purified. 100 ng of GST-PTB domain or GST-SH2 domain fusion protein were incubated in 1×hybridization buffer with 500 nM biotinylated phosphopeptide for 1 hour at 4° C., immunoprecipitated as described in Example 2, above, washed once, and the pellets incubated with 0.25 units of streptavidin-alkaline phosphatase for 5 minutes at 4° C. The pellets were washed twice more, incubated for 3 minutes at room temperature with 1 mg/ml p-nitrophenylphosphate in 100 mM glycine, pH 10.1, 1 mM ZnCl2 and 1 mM MgCl2. The absorbance was measured at 405 nm.
# [3] = molecular target: T3, SH2 domain of SHC (GST-SH2 domain fusion protein) (Homo sapiens, UniProt P29353); test: Direct binding of biotinylated peptides to SH2 domain (streptavidin-coupled alkaline phosphatase detection); conditions: 500 nM biotinylated peptide, FIG. 3
# T3 construct: 100 ng of GST-PTB domain or GST-SH2 domain fusion protein were incubated
# T3 sequence (P29353 488-579 limits assumed): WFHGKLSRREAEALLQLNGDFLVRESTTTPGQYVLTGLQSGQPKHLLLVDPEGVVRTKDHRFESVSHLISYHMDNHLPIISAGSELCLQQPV
# [4] = molecular target: T4, SHC PTB domain / pp145 derived from activated B cells (Homo sapiens, UniProt P29353); test: Blocking of in vitro association of SHC PTB domain with pp145; format: binding
# T4 sequence (P29353 156-339 limits assumed): T2 sequence (P29353 156-339 limits assumed)
# Excerpt: as §1
structure (smiles),measurement,setting,value
"CC(C)C[C@H](NC(=O)[C@H](CC(N)=O)NC(=O)[C@H](CC(=O)O)NC(=O)[C@H](Cc1ccccc1)NC(=O)[C@H](C)NC(=O)[C@@H]1CCCN1C(=O)[C@H](CO)NC(=O)[C@H](Cc1ccccc1)NC(=O)[C@H](C)NC(=O)[C@@H]1CCCN1)C(=O)N[C@@H](Cc1ccc(OP(=O)(O)O)cc1)C(=O)N[C@@H](Cc1ccc(OP(=O)(O)O)cc1)C(=O)N[C@@H](Cc1c[nH]c2ccccc12)C(=O)N[C@@H](CC(=O)O)C(=O)N[C@@H](CCC(N)=O)C(=O)N[C@@H](CC(N)=O)C(=O)N[C@@H](CO)C(=O)N[C@@H](CO)C(=O)N[C@@H](CCC(=O)O)C(=O)N[C@@H](CCC(N)=O)C(=O)NCC(=O)O [PAFSPAFDNL (pY) (pY) WDQNSSEQG, PAFSPAFDNL(pY)(pY)WDQNSSEQG] (HELM PEPTIDE1{P.A.F.S.P.A.F.D.N.L.[O=C([C@H](Cc1ccc(OP(=O)(O)O)cc1)N[*:1])[*:2]].[O=C([C@H](Cc1ccc(OP(=O)(O)O)cc1)N[*:1])[*:2]].W.D.Q.N.S.S.E.Q.G}$$$$V2.0)",pIC50,[1]; Apparent Inhibition (IC50),7.30
same,"block of PTB/c-erbB2 interaction at one peptide concentration, in words","[1]; FIG. 2C, 300 nM peptides (legend says 500 nM)",completely block
same,pIC50,"[1]; approximate IC50, inhibition of PTB domain/c-erbB2 binding",~7.30
same,ability to block the PTB domain/c-erbB2 interaction after dephosphorylation,[1]; peptide dephosphorylated with tyrosine-specific phosphatases,unable to block
same,peptide concentration at which substantial inhibition is shown,"[1]; varying peptide concentrations, FIG. 2B lower blot",50 nM
same,"direct binding to PTB domain, in words",[2],able to bind directly
same,"binding to SH2 domain, in words",[3],inability of the SH2 domain of SHC to bind
same,blocking of association of SHC PTB domain with pp145,[4],blocks association
